Test system: K. pneumoniae
Assay: MIC of imipenem, ertapenem and meropenem
Assay type: cell-based, Klebsiella pneumoniae

Compound: C[C@@H](O)[C@H]1C(=O)N2C(C(=O)O)=C(SCCN=CN)C[C@H]12 [IPM, imipenem]
- MIC (K. pneumoniae 1 OMA (NDM-1 + CTX-M-15 + OXA-1 + OXA-9)): >32 µg/mL
- MIC (K. pneumoniae 2 OLA (NDM-1 + OXA-1)): 1.5 µg/mL
- MIC (K. pneumoniae 7 AFR (NDM-1 + OXA-1 + CTX-M-15 + CMY-6 + TEM-1)): >32 µg/mL
- MIC (K. pneumoniae 7AFR, NDM-1 + TEM-1 + CTX-M-15 + CMY-6 + OXA-1): >32 µg/mL
- MIC (K. pneumoniae 0227, SHV-1, non-carbapenemase producer): 0.19 µg/mL
- MIC (K. pneumoniae 588, KPC-2 + TEM-1 + SHV-11 + OXA-9): 24 µg/mL
- MIC (K. pneumoniae 1022, SHV-2a + SHV-28, non-carbapenemase producer): 0.5 µg/mL
- MIC (K. pneumoniae 1025 (CTX-M-14 + TEM-1 + SHV-11)): 0.12 µg/mL
- MIC (K. pneumoniae 1025, CTX-M-14 + TEM-1 + SHV-11, non-carbapenemase producer): 0.12 µg/mL
- MIC (K. pneumoniae 2303, KPC-2 + SHV-11): >32 µg/mL
- MIC (K. pneumoniae 6642 GEN (NDM-1 + CTX-M-15 + OXA-1 + OXA-10)): 1 µg/mL
- MIC (K. pneumoniae 6642 GEN, NDM-1 + CTX-M-15 + OXA-1 + OXA-10): 1 µg/mL
- MIC (K. pneumoniae 6759 GEN (NDM-1 + CTX-M-15 + OXA-1 + OXA-9 + OXA-10 + CMY16)): 12 µg/mL
- MIC (K. pneumoniae 6759 GEN, NDM-1 + CTX-M-15 + CMY-16 + OXA-1 + OXA-9 + OXA-10): 12 µg/mL
- MIC (K. pneumoniae 7725 (SHV-1)): 0.19 µg/mL
- MIC (K. pneumoniae 7725, SHV-1, non-carbapenemase producer): 0.19 µg/mL
- MIC (K. pneumoniae 10112, CTX-M-15 + TEM-1 + SHV-11, non-carbapenemase producer): 0.5 µg/mL
- MIC (K. pneumoniae 0404020, VIM-1+ SHV-5): >32 µg/mL
- MIC (K. pneumoniae 0404024, VIM-1): >32 µg/mL
- MIC (K. pneumoniae 0511135, VIM-1+ SHV-12): >32 µg/mL
- MIC (K. pneumoniae 648236 (SHV-2a)): 0.25 µg/mL
- MIC (K. pneumoniae 648236, SHV-2a, non-carbapenemase producer, porin deficiency): 0.25 µg/mL
- MIC (K. pneumoniae 0709121, IMP-1): 1.5 µg/mL
- MIC (K. pneumoniae 0709124, IMP-1 + TEM-15): 8 µg/mL
- MIC (K. pneumoniae 0709125, IMP-1 + TEM-1 + SHV-12): 1.5 µg/mL
- MIC (K. pneumoniae 0709127, IMP-1 + TEM-1): 0.5 µg/mL
- MIC (K. pneumoniae A28006, KPC-2 + TEM-1 + CTX-M-2 + SHV-11): 16 µg/mL
- MIC (K. pneumoniae A33504, KPC-2 + TEM-1 + SHV-11 + CTX-M-2 + OXA-9): >32 µg/mL
- MIC (K. pneumoniae AEL, OXA-48 + CTX-M-15 + SHV-28 + OXA-1): 0.5 µg/mL
- MIC (K. pneumoniae ALE (CTX-M-15 + SHV-1)): 1 µg/mL
- MIC (K. pneumoniae ALE, CTX-M-15 + SHV-1, non-carbapenemase producer, porin deficiency): 1 µg/mL
- MIC (K. pneumoniae AMS (OXA-48 + TEM-1 + CTX-M-15 + OXA-1)): 0.5 µg/mL
- MIC (K. pneumoniae AMS, OXA-48 + TEM-1 + CTX-M-15 + OXA-1): 0.5 µg/mL
- MIC (K. pneumoniae BAJ (OXA-48 + TEM-1 + CTX-M-15 + SHV-28)): 0.5 µg/mL
- MIC (K. pneumoniae BAJ, OXA-48 + TEM-1 + CTX-M-15 + SHV-28): 0.5 µg/mL
- MIC (K. pneumoniae BED (CTX-M-15 + TEM-1 + SHV-1; Table 8: SHV-11)): 1.5 µg/mL
- MIC (K. pneumoniae BED, CTX-M-15 + TEM-1 + SHV-11, non-carbapenemase producer, porin deficiency): 1.5 µg/mL
- MIC (K. pneumoniae BEL (OXA-48)): 1 µg/mL
- MIC (K. pneumoniae BEL, OXA-48): 1 µg/mL
- MIC (K. pneumoniae BEN (OXA-48 + TEM-1 + CTX-M-15 + SHV-28)): 0.38 µg/mL
- MIC (K. pneumoniae BEN, OXA-48 + TEM-1 + CTX-M-15 + SHV-28): 0.38 µg/mL
- MIC (K. pneumoniae BER (TEM-1 + SHV-28)): 1 µg/mL
- MIC (K. pneumoniae BER, SHV-28 + TEM-1, non-carbapenemase producer, porin deficiency): 1 µg/mL
- MIC (K. pneumoniae BEY (OXA-48 + CTX-M-15 + TEM-1)): 0.38 µg/mL
- MIC (K. pneumoniae BEY, OXA-48 + TEM-1 + CTX-M-15): 0.38 µg/mL
- MIC (K. pneumoniae BIC (OXA-48)): 0.5 µg/mL
- MIC (K. pneumoniae BIC, OXA-48): 0.5 µg/mL
- MIC (K. pneumoniae BOU, OXA-48): 0.38 µg/mL
- MIC (K. pneumoniae CHA (OXA-48 + TEM-1)): 0.38 µg/mL
- MIC (K. pneumoniae CHA, OXA-48 + TEM-1): 0.38 µg/mL
- MIC (K. pneumoniae COL (KPC-2 + TEM-1 + SHV-1 + CTX-M-15)): 4 µg/mL
- MIC (K. pneumoniae COO (CTX-M-15 + SHV28)): 8 µg/mL
- MIC (K. pneumoniae COO, CTX-M-15 + SHV-28, non-carbapenemase producer, porin deficiency): 8 µg/mL
- MIC (K. pneumoniae DAL (OXA-48 + CTX-M-15 + TEM-1)): 0.38 µg/mL
- MIC (K. pneumoniae DAL, OXA-48 + TEM-1 + CTX-M-15): 0.38 µg/mL
- MIC (K. pneumoniae DIA, OXA-48 + TEM-1b + CTX-M-15 + SHV-11 + OXA-1): >32 µg/mL
- MIC (K. pneumoniae DUW, OXA-48 + TEM-1 + CTX-M-15 + SHV-28): 32 µg/mL
- MIC (K. pneumoniae EGY (OXA-48 + CTX-M-15)): 2 µg/mL
- MIC (K. pneumoniae EGY, OXA-48 + CTX-M-15): 2 µg/mL
- MIC (K. pneumoniae ELK (OXA-48 + TEM-1 + CTX-M-15 + SHV-11)): 0.5 µg/mL
- MIC (K. pneumoniae ELK, OXA-48 + TEM-1 + CTX-M-15 + SHV-11): 0.5 µg/mL
- MIC (K. pneumoniae ENN, VIM-1+ SHV-5): 0.5 µg/mL
- MIC (K. pneumoniae FOS (CTX-M-15 + TEM-1 + SHV-11)): 6 µg/mL
- MIC (K. pneumoniae FOS, CTX-M-15 + TEM-1 + SHV-11, non-carbapenemase producer, porin deficiency): 6 µg/mL
- MIC (K. pneumoniae GES, KPC-2 + TEM-1 + SHV-11): 6 µg/mL
- MIC (K. pneumoniae HOL (OXA-181 + CTX-M-15)): 1 µg/mL
- MIC (K. pneumoniae HOL, OXA-181 + CTX-M-15): 1 µg/mL
- MIC (K. pneumoniae HPA, OXA-48 + TEM-1 + CTX-M-15 + OXA-1): 1.5 µg/mL
- MIC (K. pneumoniae IND (NDM-1 + OXA-1 + CTX-M-15)): 1 µg/mL
- MIC (K. pneumoniae KAM, KPC-3 + TEM-1 + SHV-11): 8 µg/mL
- MIC (K. pneumoniae KDH (DHA-2)): 0.12 µg/mL
- MIC (K. pneumoniae KDH, DHA-2, non-carbapenemase producer, overexpressed AmpC): 0.12 µg/mL
- MIC (K. pneumoniae KI2, NDM-1 + CTX-M-15 + OXA-1): 1 µg/mL
- MIC (K. pneumoniae KIE, NDM-1 + SHV-38 + CMY-16 + OXA-10): 0.75 µg/mL
- MIC (K. pneumoniae KPN (CTX-M-15)): 0.12 µg/mL
- MIC (K. pneumoniae KPN, CTX-M-15, non-carbapenemase producer): 0.12 µg/mL
- MIC (K. pneumoniae LEG (CTX-M-15 + TEM-1 + SHV-12)): 0.75 µg/mL
- MIC (K. pneumoniae LEG, CTX-M-15 + TEM-1 + SHV-12, non-carbapenemase producer, porin deficiency): 0.75 µg/mL
- MIC (K. pneumoniae LIB (OXA-48)): >32 µg/mL
